From US20250073255A1, “USE OF FA-TYPE LIPID COMPOUNDS IN PREPARATION OF NUCLEIC ACID DELIVERY REAGENT AND RELATED PRODUCT” (BEIJING BAISHIKANG PHARMACEUTICAL TECHNOLOGY (BSJPHARMA) …, priority 2021, published 2025)

System: C57BL/6 male mice
Experiment: In vivo delivery study of lipid nucleic acid mixture (oral gavage, RT-qPCR of PGY-sRNA-26 in tissues)
Design: species or system mouse
Settings: for overall delivery efficacy: delivering nucleic acids into each tissue and blood tested: 100 μg lipid:10 nmol PGY-sRNA-26, all tissues and blood tested; for oral delivery of single-stranded sRNA nucleic acids into mouse blood / oral delivery of single-stranded sRNA nucleic acids into mouse brain tissue / oral delivery of single-stranded sRNA nucleic acids into mouse femur / oral delivery of single-stranded sRNA nucleic acids into mouse heart tissue / oral delivery of single-stranded sRNA nucleic acids into mouse intestinal tissue / oral delivery of single-stranded sRNA nucleic acids into mouse kidney tissue / oral delivery of single-stranded sRNA nucleic acids into mouse liver tissue / oral delivery of single-stranded sRNA nucleic acids into mouse lung tissue / oral delivery of single-stranded sRNA nucleic acids into mouse spleen tissue / oral delivery of single-stranded sRNA nucleic acids into mouse stomach tissue: 100 μg lipid:10 nmol PGY-sRNA-26, sampled after 12 hours; for oral delivery of single-stranded sRNA nucleic acids into mouse heart tissue: vs free uptake group; for oral delivery of single-stranded sRNA nucleic acids into mouse intestinal tissue: intestine
Protocol: 10 nmol of small RNA (as shown in Table 2) was dissolved in 400 μl of DEPC-treated water in a glass tube, 10 μl of the corresponding lipid stock solution was added such that the lipid mass in the system was 100 μg. The mixture was mixed thoroughly, heated in a 90° C. water bath for 15 minutes, and then cooled naturally to obtain the lipid nucleic acid mixture of lipid and small RNA.
C57BL/6 male mice, approximately 6 weeks old, weighing […], were obtained from Beijing Vital River Laboratory Animal Technology Co., Ltd. The mice were housed in the SPF-grade animal facility at the Animal Center of the Institute of Basic Medical Sciences, Chinese Academy of Medical Sciences. The mice were fasted for 12 hours before gavage administration.
The lipid nucleic acid mixture was prepared following the method described in Example 2. The resultant lipid nucleic acid mixture was orally administered to each mouse at a dose of 100 μg lipid:10 nmol single-stranded 3-methylated small RNA PGY-sRNA-26.
• 1) Blank group (n=4): mice were administered with 500 μl saline by gavage, this group served as a blank control; • 2) Free uptake group (n=4): mice were directly administered with small RNA PGY-sRNA-26 solution (10 nmol/mouse, 500 l) by gavage, this group served as a negative control; • 3) Lipid-treated group (n=4): mice were administered with 500 μl lipid nucleic acid mixture prepared in step 2 by gavage.
After 12 hours of gavage administration, 500 μl blood from the eyeball of each mouse was sampled, added to 1.5 ml Trizol Reagent LS (purchased from Invitrogen), thoroughly mixed for lysis. 3 ml of Trizol Reagent LSwas added to tissue samples and homogenized for complete lysis, wherein the sampled tissues include heart, liver, spleen, lung, kidney, stomach, intestine, brain, blood, femur, pancreas. RNAwas extracted from 1 ml of the blood or the tissue lysate following the steps below: • Centrifuge at 4° C., 12,000 rpm for 5 min, discard the precipitate, transfer Trizol to a new centrifuge tube; • Add chloroform at 200 μL chloroform/mL Trizol, shake well, stand at room temperature for 5 min; • Centrifuge at 4° C., 12,000 rpm for 15 min; • Take the upper aqueous phase to another centrifuge tube, add isopropanol at 0.4 mL isopropanol/mL Trizol, mix well, and stand at low temperature for 10-20 min; • Centrifuge at 4° C., 12,000 rpm for 15 min, discard the supernatant, RNA precipitated at the bottom of the tube; • Add 1 mL of 75% ethanol, gently shake the centrifuge tube, suspend the precipitate; • Centrifuge at 4° C., 12,000 rpm for 15 min, discard the supernatant, add 1 mL of 75% ethanol, gently shake the centrifuge tube, suspend the precipitate; • Centrifuge at 4° C., 12,000 rpm for 15 min, discard the supernatant, air-dry at room temperature, dissolve RNA samples in 50 μL RNase-free H2O, measure OD value to quantify RNA concentration. 3.3 Reverse Transcription of sRNA to cDNA:
sRNA was reverse transcribed to cDNA using the High-Capacity cDNA Reverse Transcription Kit (Applied Biosystems, cat. no. 4368813) by stem-loop method (see, e.g., “Real-time quantification of microRNAs by stem-loop RT-PCR, Nucleic Acids Res. 2005 Nov. 27; 33(20):e179”, incorporated herein by reference). The reverse transcription system is as follows: Template RNA (200 ng/μL) 10 μL, 10×RT Buffer 2.0 μL, 25×dNTP Mix (100 mM) 0.8 μL, U6 RT stem-loop primer (10 μM) 2.0 μL, PGY-sRNA-26 RT stem-loop primer (10 μM) 2.0 μL, MultiScribe™ Reverse Transcriptase (50 U/μL) 1.0 μL, RNAse Inhibitor (40 U/μL) 1.0 μL, nuclease-free H2O 1.2 μL. After transient centrifugation, the reverse transcription system was placed in a PCR machine with the following reaction conditions: (1) 25° C., 10 min; (2) 37° C., 120 min; (3) 85° C., 5 min; (4) 4° C., stop reaction. After the reaction, add 20 μL RNAse-free ddH2O, adjust the final volume to 40 μL. […]

| SMILES | overall delivery efficacy: delivering nucleic acids into each tissue and blood tested | oral delivery of single-stranded sRNA nucleic acids into mouse blood | oral delivery of single-stranded sRNA nucleic acids into mouse brain tissue | oral delivery of single-stranded sRNA nucleic acids into mouse femur | oral delivery of single-stranded sRNA nucleic acids into mouse heart tissue | oral delivery of single-stranded sRNA nucleic acids into mouse intestinal tissue | oral delivery of single-stranded sRNA nucleic acids into mouse kidney tissue | oral delivery of single-stranded sRNA nucleic acids into mouse liver tissue | oral delivery of single-stranded sRNA nucleic acids into mouse lung tissue | oral delivery of single-stranded sRNA nucleic acids into mouse spleen tissue | oral delivery of single-stranded sRNA nucleic acids into mouse stomach tissue |
| --- | --- | --- | --- | --- | --- | --- | --- | --- | --- | --- | --- |
| O=C(O)C[C@H]1CCC(=O)[C@@H]1C/C=C\CCO [Lipid 543] | best delivery efficacy | can effectively orally deliver | can effectively orally deliver | can effectively orally deliver | can effectively orally deliver | can effectively orally deliver | can effectively orally deliver | can effectively orally deliver | can effectively orally deliver | can effectively orally deliver | can effectively orally deliver |
| O=C(O)CCCCCCCCCCCCCC(=O)O [Lipid 572, pentadecanedioic acid] |  | can effectively orally deliver | can effectively orally deliver | can effectively orally deliver | can effectively orally deliver | can effectively orally deliver | can effectively orally deliver | can effectively orally deliver |  | can effectively orally deliver | can effectively orally deliver |
| CCCCCCCCCC(N)=O [Lipid 573, Decanamide] |  | can effectively orally deliver | can effectively orally deliver | can effectively orally deliver | can effectively orally deliver | can effectively orally deliver |  | can effectively orally deliver |  | can effectively orally deliver | can effectively orally deliver |
| CCCCCCCCCCCCCCC=O [Lipid 574] |  | can effectively orally deliver | can effectively orally deliver | can effectively orally deliver | can effectively orally deliver |  | can effectively orally deliver | can effectively orally deliver |  | can effectively orally deliver | can effectively orally deliver |
| CCCCCCCCCCCCCCCC(=O)NCCO [Lipid 578, N-(2-hydroxyethyl)hexadecanamide] |  | can effectively orally deliver | can effectively orally deliver | can effectively orally deliver | can effectively orally deliver |  | can effectively orally deliver | can effectively orally deliver | can effectively orally deliver | can effectively orally deliver | can effectively orally deliver |
| CCCCCCCCCCCCCC(C)=O [Lipid 593, pentadecan-2-one] | best delivery efficacy | can effectively orally deliver | can effectively orally deliver | can effectively orally deliver | can effectively orally deliver | can effectively orally deliver | can effectively orally deliver | can effectively orally deliver | can effectively orally deliver | can effectively orally deliver | can effectively orally deliver |
| CCCCCCCCCCCCCC=O [Lipid 594] | best delivery efficacy | can effectively orally deliver | can effectively orally deliver | can effectively orally deliver | can effectively orally deliver | can effectively orally deliver | can effectively orally deliver | can effectively orally deliver | can effectively orally deliver | can effectively orally deliver | can effectively orally deliver |
